Reference: PubChem BioAssay (NCI)
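Five concentrations, 48 hours, 96-well plates. The concentration for 50% growth inhibition is given as GI50. TGI marks complete inhibition of growth.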

Assays:
Test in all cases: inhibition of tumour cell growth, NCI panel, 48 h
TK-10 renal = test system: TK-10 renal
SK-OV-3 ovarian = test system: SK-OV-3 ovarian
SR leukemia = test system: SR leukemia
CCRF-CEM leukemia = test system: CCRF-CEM leukemia
HOP-62 NSCLC = test system: HOP-62 NSCLC
HCT-116 colon = test system: HCT-116 colon
NCI-H460 lung = test system: NCI-H460 lung
OVCAR-8 ovarian = test system: OVCAR-8 ovarian
HCT-15 colon = test system: HCT-15 colon
HT29 colon = test system: HT29 colon

SMILES | GI50 (TK-10 renal) | TGI (TK-10 renal) | GI50 (SK-OV-3 ovarian) | TGI (SK-OV-3 ovarian) | GI50 (SR leukemia) | TGI (SR leukemia) | GI50 (CCRF-CEM leukemia) | TGI (CCRF-CEM leukemia) | GI50 (HOP-62 NSCLC) | TGI (HOP-62 NSCLC) | GI50 (HCT-116 colon) | TGI (HCT-116 colon) | GI50 (NCI-H460 lung) | TGI (NCI-H460 lung) | GI50 (OVCAR-8 ovarian) | TGI (OVCAR-8 ovarian) | GI50 (HCT-15 colon) | TGI (HCT-15 colon) | GI50 (HT29 colon) | TGI (HT29 colon)
COc1cc(NC(=O)Nc2cnc(Nc3ccc(N4CCOCC4)cc3)nc2Oc2cccc(OC)c2)cc(OC)c1 | 1.11 µM | 2.85 µM | 2.79 µM | 11.1 µM | 2.71 µM | > 50 µM | > 50 µM | > 50 µM | 1.76 µM | 6.9 µM | 1.1 µM | 2.74 µM | 1.12 µM | 2.27 µM | 1.31 µM | 3.19 µM | 5.35 µM | > 50 µM | 1.1 µM | 3.15 µM
O=c1[nH]c2ccccc2n1-c1n[nH]c2ccccc12 | 40.7 µM | > 100 µM | 73 µM | > 100 µM | 18.1 µM | 73.1 µM | 15.2 µM | > 100 µM | 33.2 µM | > 100 µM | 24.6 µM | 67.5 µM | 19.4 µM | 93.5 µM | 35.3 µM | > 100 µM | 31 µM | > 100 µM | 37.6 µM | > 100 µM
O=C(Nc1ccccc1C(=O)N/N=C(\c1ccccc1)c1ccccn1)c1ccc(F)cc1 | 0.408 µM | > 100 µM | 0.354 µM | > 20.9 µM | 0.142 µM | > 100 µM | 0.121 µM | > 100 µM | 0.214 µM | > 38.5 µM | 0.266 µM | > 100 µM | 0.105 µM | 4.19 µM | 0.31 µM | > 100 µM | 0.0426 µM | > 100 µM | 0.165 µM | > 100 µM
O=C(NCCCCCCCNC(=O)OCc1ccc2c(Cl)cc(Cl)c(O)c2n1)OCc1ccc2c(Cl)cc(Cl)c(O)c2n1 | 1.4 µM | 2.73 µM | 3.93 µM | 14 µM | 0.267 µM | 1.41 µM | 0.282 µM | 1.32 µM | 1.4 µM | 3.22 µM | 0.241 µM | 0.63 µM | 1.4 µM | 3.51 µM | 0.395 µM | 1.83 µM | 0.221 µM | 0.542 µM | 0.538 µM | 2.46 µM
CN1CCN(c2nc(-c3ccncc3)nc3sc4c(c23)CCCCCC4)CC1 | 6.71 µM | 20.5 µM | 12.2 µM | 24.6 µM | 2.81 µM | 12.2 µM | 8.05 µM | 28.8 µM | 6.5 µM | 19.4 µM | 5.13 µM | 17.7 µM | 13.5 µM | 29 µM | 12.2 µM | 26.3 µM | 11.3 µM | 24.3 µM | 4.75 µM | 17.3 µM
CC(NC(=O)c1ccccc1)(C(=O)O)C(=O)O | – | > 100 µM | – | > 100 µM | – | > 100 µM | – | > 100 µM | – | > 100 µM | – | > 100 µM | – | > 100 µM | – | > 100 µM | – | > 100 µM | – | > 100 µM
